From patent US20060269482A1 (priority 2005, published 2006)

Legend:
[1] = test system: Rb phosphorylation in human PBMCs; experiment: Rb phosphorylation in human PBMCs treated ex vivo; type: cell-based; details: PMA stimulated, 0.2 to 2.0 μM, Western blot
Protocol: Approximately 10 mls of blood was collected from five healthy human volunteers into sodium heparin treated Vacutainer blood collection tubes by Employee Health Services. PBMCs were separated using the Lymphocyte Separation Medium (LSM) and protocol supplied by ICN Biomedicals Inc. (Costa Mesa, Calif.). Briefly whole blood was diluted 1:1 with cold HBSS (Hanks Balanced Salt Solution), layered onto the LSM and centrifuged. The band of mononuclear cells above the LSM was collected, transferred to a new tube and washed once with cold HBSS. Cells were resuspended in RPMI 1640, 10% HI-FBS, 2 mM L-glutamine and 0.01 mg/ml Gentamicin Reagent Solution (GIBCO/Invitrogen). […]
PBMCs were collected by transferring the cells, including attached cells and those in suspension, into 50 ml tubes. […] Samples were sonicated on ice for 30 seconds, clarified by centrifugation at 16,000×g for 10 minutes at 4° C. and protein concentrations determined using Non-Interfering Protein Assay Kit (Geno Technology Incorporated, Maplewood, Mo.). […] For Western blotting, total Rb was detected using antibody from Pharmingen (BD Bioscience, San Diego, Calif.) at a dilution of 1:2000. Lysates were analysed by Western blotting for Rb phosphorylation using polyclonal antibodies against phosphorylated serine 795, serine 780, threonine 821 and serine 807/811 in human Rb (FIG. 8). […]

[2] = test system: Rb phosphorylation in MTLn3 tumors; experiment: Rb phosphorylation in rat MTLn3 tumor xenografts after a single oral dose; type: in vivo; details: single oral dose 80 mg/kg, Western blot
Protocol: The dose selected was 80 mg/kg, determined to be an efficacious dose in this animal model. Tumor growth inhibition in the MTLn3 xenograft model after 2 to 3 weeks of oral dosing at 80 mg/kg once weekly averaged 90% with 2/10 complete regressions. COMPOUND A was dosed on day 10 post implantation of cells, at which time the tumors were 100-200 mm^3 in size. In this pharmacokinetic/pharmacodynamic experiment, plasma and tumors were collected at 1, 2, 6, 24 and 72 hours post dosing of a single oral dose of COMPOUND A. Tumors were removed and immediately snap frozen in liquid nitrogen and stored at −80° C. until drug concentration analysis. […] Concentrations of COMPOUND A in plasma and tumors were determined in the same three animals per time point. […] Peripheral blood mononuclear cells (PBMCs) were isolated, stimulated ex vivo with mitogen and analyzed by Western blot as described below.
In a second pharmacodynamic study, plasma concentrations of COMPOUND A were similarly analyzed as described above, and Rb phosphorylation in both PBMCs and tumor xenografts treated with a single oral dose of COMPOUND A was examined.
PBMCs were collected by transferring the cells, including attached cells and those in suspension, into 50 ml tubes. […] For Western blotting, total Rb was detected using antibody from Pharmingen (BD Bioscience, San Diego, Calif.) at a dilution of 1:2000. […]

COc1ccc(F)c(F)c1C(=O)c1cnc(NC2CCN(S(C)(=O)=O)CC2)nc1N [COMPOUND A, [4-amino-2-(1-methanesulfonylpiperidin-4-ylamino)pyrimidin-5-yl]-(2,3-difluoro-6-methoxyphenyl)methanone]
Rb phosphorylation at the serine 807/811 site ([1]; human PBMCs of two donors): complete inhibition of phosphorylation | Rb phosphorylation at the threonine 821 site ([1]; human PBMCs, 24 hours incubation): not inhibited at any concentration | Rb phosphorylation (serine 807/811) in tumor xenografts [2]: reduction in phosphorylation of Rb
